In brackets after ≈: the same amount, converted by molar mass. Several values for one entry are separate records, joined by “and”; a condition that tells them apart may be missing. Identical values can stand only once.
Key:
[1] = Solubility of acetaminophen at 20° C.; assay type: physicochemical; conditions: water
[2] = test system: oedema at the site of inflammation induced by carrageenan; test: Development of oedema (paw volume), carrageenan model; assay type: in vivo, mice; conditions: for Paw volume (oedema): mice, individual animals
Experimental: The efficacy of the acetaminophen supersaturated solution administered by spinal administration (IT) was tested by means of explorative experiments in a model of inflammatory pain in mice, induced by means of intraplantar injection (injection in the rear left paw, referred to hereinafter as the “site of inflammation”) of carrageenan (50 μl 1%).
The development of oedema at the site of inflammation was measured and expressed as an increase of volume (mL) of the site of inflammation.
Spinal administration in the mouse was carried out as described by Fairbanks (2003).

[3] = test system: post-surgical pain in rats; assay type: in vivo; conditions: 4 hours after the incision, IT acetaminophen 200 μg, chloroprocaine 3% 20 μL; for pain threshold following mechanical stimulation: individual animals
Experimental: The efficacy of the acetaminophen supersaturated solution administered by spinal administration (IT) was tested with explorative experiments in a model of post-surgical pain in rats in combination with a solution of chloroprocaine 3%.
The post-surgical pain was induced by means of incision and subsequent suture of the subplantar region of the rear left paw, as described by Timothy J. Brennan (1996).
The pain threshold following mechanical stimulation (expressed in grams) was measured 4 hours after the incision. Complete reduction of the anaesthetic effect of the spinal chloroprocaine is expected within this period of time. The reduction of the pain threshold is considered to be an indicator of pain and hyperalgesia of the zone affected by surgical intervention.

[4] = test system: post-surgical pain in rats; assay type: in vivo; conditions: IT chloroprocaine 3% 20 μL, after 4 hours

| Compound | solubility [1] [mg/mL] | Paw volume (oedema) ([2]; 10 μg IT, 2 hours after carrageenan) | Paw volume (oedema) ([2]; 10 μg IT, 4 hours after carrageenan) | Paw volume (oedema) ([2]; 10 μg IT, 6 hours after carrageenan) | Paw volume (oedema) ([2]; 10 μg IT, 24 hours after carrageenan) | Paw volume (oedema) ([2]; 10 μg IT, basal) | Paw volume (oedema) ([2]; 100 μg IT, 2 hours after carrageenan) | Paw volume (oedema) ([2]; 100 μg IT, 4 hours after carrageenan) | Paw volume (oedema) ([2]; 100 μg IT, 6 hours after carrageenan) | Paw volume (oedema) ([2]; 100 μg IT, 24 hours after carrageenan) | Paw volume (oedema) ([2]; 100 μg IT, basal) | reduction of the development of oedema at the site of inflammation ([2]; 100 μg per mouse IT, first two hours following induction) | pain threshold following mechanical stimulation [3] | effect on pain threshold / post-surgical pain [3] | recovery of walking and tension of the rear limbs [4] |
| --- | --- | --- | --- | --- | --- | --- | --- | --- | --- | --- | --- | --- | --- | --- | --- |
| CC(=O)Nc1ccc(O)cc1 [Acetaminophen, acetyl-p-aminophenol] | ~13 (≈ 86 mM) | 0.43 mL and 0.36 mL (2×) and 0.38 mL and 0.37 mL (2×) and 0.44 mL | 0.39 mL and 0.36 mL and 0.34 mL and 0.38 mL and 0.44 mL (2×) and 0.41 mL | 0.44 mL and 0.38 mL and 0.33 mL (2×) and 0.37 mL and 0.45 mL and 0.36 mL | 0.47 mL and 0.4 mL and 0.46 mL and 0.37 mL and 0.5 mL and 0.42 mL (2×) | 0.29 mL (2×) and 0.24 mL and 0.2 mL and 0.21 mL and 0.26 mL and 0.22 mL | 0.32 mL and 0.34 mL and 0.33 mL (3×) and 0.37 mL and 0.36 mL | 0.35 mL (2×) and 0.37 mL and 0.38 mL (2×) and 0.36 mL and 0.34 mL | 0.38 mL (2×) and 0.4 mL (2×) and 0.39 mL and 0.43 mL and 0.35 mL | 0.33 mL and 0.41 mL and 0.42 mL and 0.44 mL and 0.47 mL and 0.45 mL and 0.46 mL | 0.27 mL and 0.28 mL and 0.29 mL and 0.24 mL and 0.26 mL and 0.25 mL and 0.18 mL | approximately 20% | 22.75 grams and 24.90 grams and 24.00 grams and 28.00 grams and 38.75 grams | – | – |
| CCN(CC)CCOC(=O)c1ccc(N)cc1Cl [Chloroprocaine, chloroprocaine] | – | – | – | – | – | – | – | – | – | – | – | – | 23.60 grams and 22.75 grams and 19.75 grams and 24.25 grams | did not change the pain threshold | complete recovery in terms of walking and tension of the rear limbs |

— US11344517B2, “Injectable supersaturated acetaminophen solution for spinal administration” (priority 2012, dated 2022)
